Measurements published in PubChem BioAssay (NCI).
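The compound was tested at five concentrations on cells cultured in 96-well plates, with a 48-hour exposure period. TGI: concentration producing complete growth inhibition.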

What was measured:
Assay in all cases: NCI tumour cell line growth inhibition, 48 h
[1] = system: P388/ADR leukemia
[2] = system: SN12K1 renal
[3] = system: P388 leukemia
[4] = system: 786-0 renal

| SMILES | TGI [1] [µM] | TGI [2] [µM] | TGI [3] [µM] | TGI [4] [µM] |
| --- | --- | --- | --- | --- |
| O=C(CCl)NC(Cc1ccc(F)cc1)C(=O)O (configuration not stated) | > 100 | > 100 | > 100 | – |
| CC1CCC(O)(C(C)(C(=O)O)c2ccccc2)CC1 (configuration not stated) | – | – | – | > 100 |
| O=C(O)CCSCc1ccc(I)cc1 | – | – | – | > 100 |
| Oc1c2c(c3c4c1N=CC=4CCN=3)-c1c(Br)cc(Br)cc1CCN2 | 5.83 | 15.4 | – | – |
